Test results as given in PMC11968506, “Toxicokinetics and analytical toxicology of the phenmetrazine-derived new psychoactive substance 3,4-methylenedioxyphenmetrazine studied by means of in vitro systems” (Archives of Toxicology, 2025).

Key:
CYP2C9 = CYP2C9 (Homo sapiens, UniProt P11712); test: CYP inhibition cocktail assay in pHLM, CYP2C9 (diclofenac); settings: inhibitor 20 µM
Experimental: A modified dual-cocktail based method (Dinger et al. [2014b]) was used. Substrate cocktail A consisted of 8.9 µM dextromethorphan (CYP2D6), 86 µM testosterone (CYP3A4), 3.5 µM diclofenac (CYP2C9), and 12 µM phenacetin (CYP1A2). Substrate cocktail B included 30 µM bupropion (CYP2B6), 2 µM amodiaquine (CYP2C8) and 21 µM omeprazole (CYP2C19). Substrate concentrations were near their respective Michaelis–Menten constant (Km) values (Dinger et al. [2014a]) and all concentrations are final. Enzyme inhibition was investigated using a positive control, a test group, a control group, an interference group, and a negative control. In the test group, specific inhibitors were replaced by MDPM (20 µM). Instead of inhibitors, phosphate buffer was used in the control group. Enzymes were replaced with phosphate buffer in the negative control group. The interference group was incubated like the control group, but the reaction was stopped with 20 µM MDPM in acetonitrile, also containing 2.5 µM trimipramine-d3. All groups were incubated with a NADPH-regenerating system, consisting of 5 mM isocitrate, 2 U/mL isocitrate dehydrogenase, 5 mM Mg^2+, and 1.2 mM NADP^+. Further, substrate cocktail A or B, 90 mM phosphate buffer (pH 7.4), and 200 U/mL superoxide dismutase were added to each group. […] All groups were preincubated for 10 min at 37 °C. Then, pHLM (0.4 mg microsomal protein/mL) was added to each group except the negative control. Incubations were done for 15 min at 37 °C. Therefore, 50 µL of acetonitrile (− 20 °C) containing 2.5 µM trimipramine-d3 as internal standard was added. Incubations were done in triplicates and organic solvent in the incubation mixture was below 1% (Chauret et al. [1998]). Afterwards the samples were vortexed and centrifuged for 2 min at 18,407×g. 70 µL of the supernatant were transferred to autosampler vials and 10 µL were injected onto the LC-HRMS/MS system. Enzyme inhibition was evaluated by metabolite formation. […] The following settings were used: unpaired; one-tailed; significance level, 0.05; confidence intervals, 99%.

CYP2D6 = CYP2D6 (Homo sapiens, UniProt P10635); test: Monooxygenase mapping (ten human cDNA-expressed CYP isoforms and FMO3); assay type: in vitro ADME; parameters: Then, pHLM (0.4 mg microsomal protein/mL) was added to each group except the negative control; tissue Discovery Life Sciences; host or cells: pooled human liver microsomes, 25 donors; settings: MDPM 25 µM, CYP 50 pmol/mL each or FMO3 0.25 mg protein/mL, 90 and 270 min
Experimental: As described elsewhere (Wagmann et al. [2016]) and with minor modifications, MDPM (25 µM) was incubated with 2.5 mM isocitrate, 0.8 U/mL isocitrate dehydrogenase, 100 U/mL superoxide dismutase, 0.6 mM NADP^+, 2.5 mM Mg^2+ and CYP1A2, CYP2A6, CYP2B6, CYP2C8, CYP2C9, CYP2C19, CYP2D6, CYP2E1, CYP3A4, CYP3A5 (50 pmol/mL each), or FMO3 (0.25 mg protein/mL) for 90 and 270 min at 37 °C. For incubations with CYP2A6 or CYP2C9, phosphate buffer was replaced with 90 mM Tris buffer, according to the manufacturer’s guideline. Thirty µL aliquots were taken at both timepoints. The reaction was stopped using 20 µL acetonitrile (− 20 °C) with 2.5 µM trimipramine-d3 as an internal standard. All incubations were done in duplicates and concentrations are final. […] Negative control samples without enzymes and blank samples without substrate were incubated to identify not metabolically formed compounds and to confirm the absence of interfering compounds.

CYP2C9, sequence (P11712 whole entry): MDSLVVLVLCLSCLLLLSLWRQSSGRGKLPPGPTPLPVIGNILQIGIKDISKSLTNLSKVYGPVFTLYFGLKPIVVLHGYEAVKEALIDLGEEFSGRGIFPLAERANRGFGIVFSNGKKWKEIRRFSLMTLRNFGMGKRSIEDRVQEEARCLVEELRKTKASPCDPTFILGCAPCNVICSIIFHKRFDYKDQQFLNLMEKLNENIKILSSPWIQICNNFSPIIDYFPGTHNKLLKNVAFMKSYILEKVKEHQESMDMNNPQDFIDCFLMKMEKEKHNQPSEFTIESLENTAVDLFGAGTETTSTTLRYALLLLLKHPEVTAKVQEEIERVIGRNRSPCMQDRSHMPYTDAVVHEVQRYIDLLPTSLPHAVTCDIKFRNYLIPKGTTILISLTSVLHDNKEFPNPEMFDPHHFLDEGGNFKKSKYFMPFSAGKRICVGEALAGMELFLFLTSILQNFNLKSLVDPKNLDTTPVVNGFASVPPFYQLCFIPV
CYP2D6, sequence (P10635 whole entry, canonical isoform): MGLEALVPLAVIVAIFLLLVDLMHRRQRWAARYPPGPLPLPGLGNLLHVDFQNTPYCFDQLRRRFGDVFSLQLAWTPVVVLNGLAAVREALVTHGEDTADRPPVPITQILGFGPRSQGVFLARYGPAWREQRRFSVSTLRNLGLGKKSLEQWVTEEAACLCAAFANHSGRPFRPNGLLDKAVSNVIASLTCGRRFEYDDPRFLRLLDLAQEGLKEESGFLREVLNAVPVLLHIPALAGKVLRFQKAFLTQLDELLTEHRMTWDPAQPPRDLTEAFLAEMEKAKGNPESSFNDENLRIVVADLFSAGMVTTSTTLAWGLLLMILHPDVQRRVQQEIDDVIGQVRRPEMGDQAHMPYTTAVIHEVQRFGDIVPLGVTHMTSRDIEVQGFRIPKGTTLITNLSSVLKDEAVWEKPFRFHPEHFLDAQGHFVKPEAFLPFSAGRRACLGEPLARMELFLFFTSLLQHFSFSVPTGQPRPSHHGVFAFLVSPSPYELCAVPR

Q: CC1NCCOC1c1ccc2c(c1)OCO2 (stereo not drawn) [MDPM, 2-(1,3-benzodioxol-5-yl)-3-methylmorpholine] was tested. Which CYP2C9 metabolite formation (CYP2C9; diclofenac 3.5 µM, pHLM 0.4 mg/mL, 15 min, control without inhibitor = 100%) did it give?
A: 115%

Q: And the “inhibition of CYP2C9” value (CYP2C9; diclofenac, pHLM, t-test versus control)?
A: no significant inhibition

Q: What about the “isozymes forming the demethylenyl metabolite (O-demethylenation of MDPM)” value (CYP2D6) of the same compound?
A: exclusively by CYP2D6
